Results from patent US10948498B2, “Methods and kits for predicting the risk of having a cardiovascular disease or event” (INOTREM, priority 2013, dated 2021).

Assays:
[1] = tested on: Atherosclerotic mice (24 weeks old ApoE−/− mice under fat diet); test: Atherosclerosis in mouse: plasma sTREM-1 after peptide treatment; assay type: in vivo
Method: (B) Atherosclerotic mice were randomized to receive LR12 (100 μg in 0.2 mL NaCl 0.9% once a day for 4 weeks) or scrambled-LR12 (100 μg in 0.2 mL NaCl 0.9% once a day for 4 weeks), i.p. injections. Blood samples were obtained at the end of the treatment (4 weeks) to assess sTREM-1 plasma concentrations. Physiologic baseline is calculated from dosage in healthy animals. N=10 per group.
(§1) Mice serum levels of sTREM-1 were determined by ELISA (Mouse TREM-1 Quantikine ELISA Kit, RnDsystems) using a detection limit at 31.3 pg/mL.
12 and 24-weeks old male ApoE−/− mice were put on a fat (lipids 15%, cholesterol 1.25%, no cholate) or chow diet and were treated by daily intraperitoneal injection of peptides (100 μg/day). After 4 weeks of treatment, mice were sacrificed for blood sampling.
Our second objective was to assess whether a treatment could impact plasma levels of sTREM-1. Atherosclerotic mice (24 weeks old ApoE−/− mice under fat diet) were treated by LR12 peptide, which targets TREM-1 ligand, or a control peptide LR12-scrambled.

infarcted mice = test: Mouse model of myocardial infarction: plasma sTREM-1 after peptide treatment; assay type: in vivo; conditions: for sTREM-1 levels: daily i.p. injection for 5 days, vs LR12-scrambled (FIG. 4A)
Method: (A) Adult male Balb/c mice (20-23 g) were subjected to myocardial ischemia and were randomly grouped (n=10 per group) to receive repeated LR12 (100 μg in 0.2 mL NaCl 0.9% once a day for 5 days) or scrambled-LR12 (100 μg in 0.2 mL NaCl 0.9% once a day for 5 days), i.p. injections. Blood samples was obtained at 24, 72 and 168 hours after cardiac ischemic event to measure plasma sTREM-1 levels. Physiologic baseline is calculated from dosage in healthy animals. N=10 per group and per timepoint.
as §1
All procedures were performed on mice male C57BL/C ranging in age from 6-8 weeks. Mice were anesthetized by an intraperitoneal injection of xylazine (60 mg/kg) and fixed in supine position. The trachea was intubated and ventilated (the tidal volume was 200 μl/25 g and the respiratory rate was 120 breaths/min). After a left thoracotomy, the left coronary artery was identified and ligated with an 8-0 prolene surgical suture at 1.0 mm distal from tip of the left auricle. LAD occlusion was confirmed by a change in myocardial color from red to white in the ischemia area (Left ventricle). The chest was closed and the skin was sutured with 6-0 silk. The animals returned to their cage where they are supervised until their complete recovery.
Mice were randomized to receive or not peptides (daily ip injection for 5 days, 5 mg/kg) and were sacrificed after 24 h, 72 h, 168 h (n=6 per group) by anesthesia followed with pentobarbital sodium overdose for blood sampling.
We also show in infarcted mice that sTREM-1 levels were decreased by LR12 treatment 24 and 72 hours after an ischemic event (FIG. 4A).

“LR12: 12 amino-acids peptide (LQEEDTGEYGCV, SEQ ID NO: 4) known to specifically target TREM-1 ligand (LR12)” was tested, and the sTREM-1 plasma concentration ([1]; 24 weeks old ApoE−/− mice under fat diet, 100 μg/day i.p., after 4 weeks of treatment, ELISA) was 189.8 pg/mL, the outcome during atherosclerosis ([1]; data not shown) was “better outcome” and the sTREM-1 levels (infarcted mice; 24 hours after ischemic event) was “decreased”. The sTREM-1 levels (infarcted mice; 72 hours after ischemic event) was “decreased” and the “outcome after a cardiac ischemic event” value (infarcted mice; data not shown) was “better outcome”.
